Measured values reported in patent publication US9446130B2, “BTK inhibitors” (MERCK SHARP & DOHME CORP., priority 2013, dated 2016).

Target: BTK enzyme (hBTK, full-length recombinant) (Homo sapiens (Human), UniProt Q06187)
Experiment: Btk enzyme activity assay, Method B: LANCE TR-FRET
Format: biochemical
Conditions: 25 μM ATP, 60 minute compound & enzyme incubation
Experimental: Also BTK enzymatic activity was determined with the LANCE (Lanthanide Chelate Excite) TR-FRET (Time-resolved fluorescence resonance energy transfer) assay. […] The final reaction in each well of 10 μL consists of 100 pM hBTK, 2 μM biotin-A5-peptide, and 25 μM ATP. Phosphorylation reactions were allowed to proceed for 120 minutes. […] After 60 minutes incubation with detection reagents, reaction plates were read on a PerkinElmer EnVision plate reader using standard TR-FRET protocol. Briefly, excitation of donor molecules (Eu-chelate:anti-phospho-antibody) with a laser light source at 337 nm produces energy that can be transferred to Dylight-650 acceptor molecules if this donor:acceptor pair is within close proximity. Fluorescence intensity at both 665 nm (acceptor) and 615 nm (donor) are measured and a TR-FRET ratio calculated for each well (acceptor intensity/donor intensity). IC50 values were determined by 4 parameter robust fit of TR-FRET ratio values vs. (Log10) compound concentrations. BTK enzymatic activity was determined with the LANCE (Lanthanide Chelate Excite) TR-FRET (Time-resolved fluorescence resonance energy transfer) assay. […] The final reaction in each well of 10 μL consists of 50 pM hBTK, 2 μM biotin-A5-peptide, and 25 μM ATP. Phosphorylation reactions were allowed to proceed for 120 minutes. […] After 60 minutes incubation with detection reagents, reaction plates were read on a PerkinElmer EnVision plate reader using standard TR-FRET protocol. Briefly, excitation of donor molecules (Eu-chelate:anti-phospho-antibody) with a laser light source at 337 nm produces energy that can be transferred to Dylight-650 acceptor molecules if this donor:acceptor pair is within close proximity. Fluorescence intensity at both 665 nm (acceptor) and 615 nm (donor) are measured and a TR-FRET ratio calculated for each well (acceptor intensity/donor intensity). IC50 values were determined by 4 parameter robust fit of TR-FRET ratio values vs. (Log10) compound concentrations.

Sequence of BTK enzyme (hBTK, full-length recombinant) (Q06187 whole entry): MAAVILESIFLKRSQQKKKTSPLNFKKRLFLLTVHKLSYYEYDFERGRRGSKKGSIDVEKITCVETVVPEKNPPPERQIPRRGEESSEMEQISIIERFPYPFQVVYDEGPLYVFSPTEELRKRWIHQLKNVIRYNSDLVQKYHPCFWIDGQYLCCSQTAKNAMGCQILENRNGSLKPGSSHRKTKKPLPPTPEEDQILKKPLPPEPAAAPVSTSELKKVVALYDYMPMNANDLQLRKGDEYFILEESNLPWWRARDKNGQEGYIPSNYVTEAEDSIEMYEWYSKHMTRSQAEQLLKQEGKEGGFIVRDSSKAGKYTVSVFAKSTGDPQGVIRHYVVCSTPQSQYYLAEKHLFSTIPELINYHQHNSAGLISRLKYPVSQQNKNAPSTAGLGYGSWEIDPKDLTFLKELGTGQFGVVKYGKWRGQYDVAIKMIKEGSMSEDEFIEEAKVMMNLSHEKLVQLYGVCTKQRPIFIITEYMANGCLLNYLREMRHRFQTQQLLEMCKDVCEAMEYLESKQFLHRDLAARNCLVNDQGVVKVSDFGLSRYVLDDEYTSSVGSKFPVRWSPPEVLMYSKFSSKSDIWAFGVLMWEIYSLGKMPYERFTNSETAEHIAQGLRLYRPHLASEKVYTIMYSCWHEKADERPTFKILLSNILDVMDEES

Row | IC50 | SMILES
1 | 0.81 nM | Nc1nccn2c([C@H]3CCn4c(nnc4C(F)(F)F)C3)nc(-c3ccc(C(=O)Nc4cc(C(F)(F)F)ccn4)cc3)c12 [Example 21, (S)-4-(8-amino-3-(3-(trifluoromethyl)-5,6,7,8-tetrahydro-[1,2,4]triazolo[4,3-a]pyridin-7-yl)imidazo[1,5-a]pyrazin-1-yl)-N-(4-(trifluoromethyl)pyridin-2-yl)benzamide]
2 | 11 nM | Nc1nccn2c([C@@H]3CCn4c(nnc4C(F)(F)F)C3)nc(-c3ccc(C(=O)Nc4cc(C(F)(F)F)ccn4)cc3)c12 [Example 22, (R)-4-(8-amino-3-(3-(trifluoromethyl)-5,6,7,8-tetrahydro-[1,2,4]triazolo[4,3-a]pyridin-7-yl)imidazo[1,5-a]pyrazin-1-yl)-N-(4-(trifluoromethyl)pyridin-2-yl)benzamide]
3 | 67 nM | Nc1nccn2c([C@@H]3CCCn4c(C5CC5)nnc43)nc(-c3ccc(C(=O)Nc4cc(C(F)(F)F)ccn4)cc3)c12 [Example 19, (S)-4-(8-amino-3-(3-cyclopropyl-5,6,7,8-tetrahydro-[1,2,4]triazolo[4,3-a]pyridin-8-yl)imidazo[1,5-a]pyrazin-1-yl)-N-(4-(trifluoromethyl)pyridin-2-yl)benzamide]
4 | 56 nM | Nc1nccn2c([C@H]3CCCn4c(C5CC5)nnc43)nc(-c3ccc(C(=O)Nc4cc(C(F)(F)F)ccn4)cc3)c12 [Example 20, (R)-4-(8-amino-3-(3-cyclopropyl-5,6,7,8-tetrahydro-[1,2,4]triazolo[4,3-a]pyridin-8-yl)imidazo[1,5-a]pyrazin-1-yl)-N-(4-(trifluoromethyl)pyridin-2-yl)benzamide]
5 | 740 nM | Cn1ncc2c1CCC[C@@H]2c1nc(-c2ccc(C(=O)Nc3cc(C(F)(F)F)ccn3)cc2)c2c(N)nccn12 [Example 24, (S)-4-(8-amino-3-(1-methyl-4,5,6,7-tetrahydro-1H-indazol-4-yl)imidazo[1,5-a]pyrazin-1-yl)-N-(4-(trifluoromethyl)pyridin-2-yl)benzamide]
6 | 1000 nM | Cn1ncc2c1CCC[C@H]2c1nc(-c2ccc(C(=O)Nc3cc(C(F)(F)F)ccn3)cc2)c2c(N)nccn12 [Example 23, (R)-4-(8-amino-3-(1-methyl-4,5,6,7-tetrahydro-1H-indazol-4-yl)imidazo[1,5-a]pyrazin-1-yl)-N-(4-(trifluoromethyl)pyridin-2-yl)benzamide]

Further lines, the compound ahead of its results:

Row | SMILES | IC50
7 | Nc1ncnc2c1c(-c1ccc(C(=O)Nc3cc(C(F)(F)F)ccn3)cc1)nn2[C@@H]1CCCc2c1cnn2CCO [Example 15, (R)-4-(4-amino-1-(1-(2-hydroxyethyl)-4,5,6,7-tetrahydro-1H-indazol-4-yl)-1H-pyrazolo[3,4-d]pyrimidin-3-yl)-N-(4-(trifluoromethyl)pyridin-2-yl)benzamide] | 1.1 nM
8 | Nc1ncnc2c1c(-c1ccc(C(=O)Nc3cc(C(F)(F)F)ccn3)cc1)nn2[C@@H]1CCCc2[nH]ncc21 [Example 5, (R)-4-(4-amino-1-(4,5,6,7-tetrahydro-1H-indazol-4-yl)-1H-pyrazolo[3,4-d]pyrimidin-3-yl)-N-(4-(trifluoromethyl)pyridin-2-yl)benzamide] | 0.52 nM
9 | CCn1ncc2c1CCC[C@H]2n1nc(-c2ccc(C(=O)Nc3cc(C(F)(F)F)ccn3)cc2)c2c(N)ncnc21 [Example 11, (R)-4-(4-amino-1-(1-ethyl-4,5,6,7-tetrahydro-1H-indazol-4-yl)-1H-pyrazolo[3,4-d]pyrimidin-3-yl)-N-(4-(trifluoromethyl)pyridin-2-yl)benzamide] | 3.2 nM
10 | Cn1cc2c(n1)CCC[C@H]2n1nc(-c2ccc(C(=O)Nc3cc(C(F)(F)F)ccn3)cc2)c2c(N)ncnc21 [Example 8, (R)-4-(4-amino-1-(2-methyl-4,5,6,7-tetrahydro-2H-indazol-4-yl)-1H-pyrazolo[3,4-d]pyrimidin-3-yl)-N-(4-(trifluoromethyl)pyridin-2-yl)benzamide] | 3.2 nM
